Here are results for one compound from publication PMC7591795, “Humulone Modulation of GABAA Receptors and Its Role in Hops Sleep-Promoting Activity” (Frontiers in Neuroscience, 2020).

Molecules are shown by their SMILES. ≈ marks a conversion by molar mass, not a printed value.

Data set [1] concerns the target T1, recombinant α1β3γ2 GABAA receptors (Rattus norvegicus, UniProt P18508+P62813+P63079).
T1 construct: expressed in transfected cells; host or cells: HEK293 cells, transient transfection (K4 transfection system), pRK5 plasmids; EGFP co-transfected from a separate pWPI plasmid
Description: Whole-cell patch-clamp of GABA-induced currents in transfected HEK293 cells. Type of data set: cell-based. The following applies: humulone 10 μM, GABA 1 μM, 1 min application, −60 mV, n = 8 cells. Here is the method: Human embryonic kidney (HEK) 293 cells (Sigma- Aldrich, St Louis, MO, United States) were maintained in Dulbecco’s modified Eagle’s medium supplemented with 10% fetal bovine serum (Gibco, Gaithersburg, MD; United States), 50 U/mL penicillin and 50 μg/mL streptomycin (Sigma-Aldrich, St Louis, MO, United States) under standard growth conditions at 37°C, 95% humidity and 5% CO2. The cells were divided and plated on 150 mm culture dishes for binding assays and 12 mm coverslips in 24-well cell culture plates for electrophysiology 24 h before transfection.
The cells were transiently transfected with rat cDNAs encoding GABAA receptor subunits (α1, L08490; α6, L08495; β3, X15468; γ2S, L08497; δ, L08496) in pRK5 plasmids under the control of CMV promoter ([Uusi-Oukari et al., 2000]). The plasmids were used in 1:1 and 1:1:1 ratio for transfections containing α1β3γ2S, α6β3, α6β3γ2S, and α6β3δ receptor subtypes. For radioligand binding, CaPO4 precipitation method was used essentially as described earlier ([Lüddens and Korpi, 1997]). […]
The cells were continuously perfused with external HEK-Krebs solution containing (in mM): 140 NaCl, 4.7 KCl, 1.2 MgCl2, 2.52 CaCl2, 11 glucose, and 5 HEPES, pH 7.4 adjusted with […]. […] The external solution and drug solutions were driven by gravity at the flow rate of 5 mL/min and the current responses were recorded at room temperature (20–22°C).
On the technique in general: In patch-clamp work, channel activity is measured electrically.

Data set [2] deals with native GABAA receptors in rat forebrain membranes. Description: [3H]EBOB binding assay, rat forebrain membranes. To be noted: each compound 1 μM, GABA 3 μM, n = 3. Here is the method:
(§1) The protein concentrations of brain membranes were determined with the Bio-Rad Coomassie blue dye-based protein assay kit (Hercules, CA, United States) as per the manufacturer’s protocol. Transfected HEK293 cells were harvested 48 h after transfection using a detaching buffer (10 mM Tris-HCl, 0.15 M NaCl, 2 mM EDTA) and centrifuged at 20,000 g for 10 min at +4 °C. The resulting pellets were suspended in the assay buffer for binding assays.
(§2) In humulone concentration series with recombinant α6β3, α6β3γ2S, and α6β3δ receptors, HEK293 cell membranes were incubated in the same above conditions for 120 min with [^3H]EBOB (1 nM) and different concentrations of humulone (30 nM–30 μM) in the presence or absence of ethanol (30 mM). […] Picrotoxin (100 μM) was used to determine the non-specific binding in all assays.
(§3) Membrane samples were filtered through Whatman GF/B glass fiber filters (Whatman International Ltd., Maidstone, United Kingdom) using a Brandel Cell Harvester (model M-24, Gaithersburg, MD, United States). The filters were rinsed three times with 5 mL of ice-cold 10 mM Tris-HCl, pH 7.4 buffer. Air-dried filters were immersed in 3 mL of Hidex AquaLight Beta scintillation liquid and radioactivity was determined in Hidex 600 SL liquid scintillation counter (Hidex, Turku, Finland).

For data set [3], the system named is native GABAA receptors in rat cerebellar membranes. Type of data set: binding. The following applies: humulone 1 μM + ethanol 30 mM; from Table 1. Here is the method:
as §1, §2, §3

Data set [4] addresses T2, recombinant α6β3γ2 GABAA receptors (Rattus norvegicus, UniProt P18508+P30191+P63079).
T2 construct: expressed in transfected cells; host or cells: HEK293 cells, transient CaPO4 transfection, pRK5 plasmids; cell membranes used
Description: [3H]EBOB binding assay, recombinant α6β3γ2 receptors in HEK293 cell membranes. To be noted: GABA 3 μM. As for the experimental part: (§4) The cells were divided and plated on 150 mm culture dishes for binding assays and 12 mm coverslips in 24-well cell culture plates for electrophysiology 24 h before transfection.
(§5) The cells were transiently transfected with rat cDNAs encoding GABAA receptor subunits (α1, L08490; α6, L08495; β3, X15468; γ2S, L08497; δ, L08496) in pRK5 plasmids under the control of CMV promoter ([Uusi-Oukari et al., 2000]). The plasmids were used in 1:1 and 1:1:1 ratio for transfections containing α1β3γ2S, α6β3, α6β3γ2S, and α6β3δ receptor subtypes. […] (Supplementary Figure S1). For electrophysiology, K4® transfection system (Biontex, München, Germany) was used according to the manufacturer’s protocol to increase expression efficiency and cell viability. […] The medium was changed 24 h after transfection and all experiments were performed 48 h after transfection.
as §1, §2, §3

In data set [5] the target is T3, recombinant α6β3 GABAA receptors (Rattus norvegicus, UniProt P30191+P63079).
T3 construct: expressed in transfected cells; host or cells: HEK293 cells, transient CaPO4 transfection, pRK5 plasmids (1:1); cell membranes used
T3 sequence (P30191 20-453): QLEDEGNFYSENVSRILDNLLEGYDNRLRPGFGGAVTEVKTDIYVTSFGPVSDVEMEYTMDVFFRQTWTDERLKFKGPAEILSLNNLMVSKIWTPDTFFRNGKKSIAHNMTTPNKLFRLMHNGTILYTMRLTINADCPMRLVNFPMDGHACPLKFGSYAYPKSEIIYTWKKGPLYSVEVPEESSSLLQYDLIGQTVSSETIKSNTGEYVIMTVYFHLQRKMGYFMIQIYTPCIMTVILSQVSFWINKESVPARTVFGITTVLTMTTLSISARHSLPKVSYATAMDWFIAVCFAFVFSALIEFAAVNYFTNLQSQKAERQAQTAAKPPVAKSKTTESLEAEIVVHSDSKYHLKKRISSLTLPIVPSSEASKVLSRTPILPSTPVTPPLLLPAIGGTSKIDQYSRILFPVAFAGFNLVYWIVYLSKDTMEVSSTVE
T3 sequence (P63079 26-473): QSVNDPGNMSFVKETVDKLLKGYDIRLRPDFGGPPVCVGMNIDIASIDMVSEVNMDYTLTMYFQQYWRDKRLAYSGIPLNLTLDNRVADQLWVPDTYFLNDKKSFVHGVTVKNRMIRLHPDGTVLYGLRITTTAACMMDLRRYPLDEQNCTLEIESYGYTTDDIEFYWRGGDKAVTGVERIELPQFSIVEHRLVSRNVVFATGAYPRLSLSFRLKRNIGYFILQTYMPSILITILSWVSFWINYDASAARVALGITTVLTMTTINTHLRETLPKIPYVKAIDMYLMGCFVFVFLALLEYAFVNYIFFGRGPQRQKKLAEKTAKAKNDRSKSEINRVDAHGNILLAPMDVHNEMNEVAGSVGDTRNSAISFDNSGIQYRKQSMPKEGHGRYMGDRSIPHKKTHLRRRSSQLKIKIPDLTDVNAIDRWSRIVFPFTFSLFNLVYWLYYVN
Description: [3H]EBOB binding assay, recombinant α6β3 receptors in HEK293 cell membranes. To be noted: GABA 3 μM. As for the experimental part: as §4, §5, §1, §2, §3

On the set-up of data set [6]: method as in Fritsch and Shellhammer, 2007. The following applies: ref Fritsch and Shellhammer, 2007; cited from earlier work.
A further data set concerns BALB/cAnNRj mice. Description: Ethanol-induced sleep test. To be noted: ethanol 3.5 g/kg i.p.; for duration of sleep induced by ethanol: vs control.

T2 sequence (P30191 20-453): as the sequence (P30191 20-453) above
T2 sequence (P63079 26-473): as the sequence (P63079 26-473) above
T2 sequence (P18508 39-466): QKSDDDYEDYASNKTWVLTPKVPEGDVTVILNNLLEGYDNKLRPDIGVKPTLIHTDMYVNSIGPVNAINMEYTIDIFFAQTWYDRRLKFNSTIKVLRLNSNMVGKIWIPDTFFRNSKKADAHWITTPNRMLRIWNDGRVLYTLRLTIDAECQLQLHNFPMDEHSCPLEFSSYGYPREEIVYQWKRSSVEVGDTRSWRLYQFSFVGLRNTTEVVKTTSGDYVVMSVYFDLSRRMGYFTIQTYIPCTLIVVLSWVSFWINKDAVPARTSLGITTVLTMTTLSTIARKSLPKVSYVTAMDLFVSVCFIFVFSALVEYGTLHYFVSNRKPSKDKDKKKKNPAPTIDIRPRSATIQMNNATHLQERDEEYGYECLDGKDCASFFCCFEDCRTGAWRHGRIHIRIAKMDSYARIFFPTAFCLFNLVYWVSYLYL
T1 sequence (P62813 28-455): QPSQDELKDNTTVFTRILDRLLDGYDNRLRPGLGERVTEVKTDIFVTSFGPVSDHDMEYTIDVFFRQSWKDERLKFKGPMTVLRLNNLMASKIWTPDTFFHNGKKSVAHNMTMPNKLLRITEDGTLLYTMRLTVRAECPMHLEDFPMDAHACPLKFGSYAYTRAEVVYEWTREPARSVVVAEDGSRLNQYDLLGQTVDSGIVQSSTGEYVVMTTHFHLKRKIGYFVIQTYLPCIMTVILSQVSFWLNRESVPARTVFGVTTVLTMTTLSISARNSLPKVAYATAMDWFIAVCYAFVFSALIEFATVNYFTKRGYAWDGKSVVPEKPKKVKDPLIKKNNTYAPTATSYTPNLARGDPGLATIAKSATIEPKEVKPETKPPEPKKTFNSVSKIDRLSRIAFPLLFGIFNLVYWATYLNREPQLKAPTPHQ
T1 sequence (P63079 26-473): as the sequence (P63079 26-473) above
T1 sequence (P18508 39-466): as the sequence (P18508 39-466) above

As for `CC(C)=CCC1=C(O)[C@@](O)(CC=C(C)C)C(=O)C(C(=O)CC(C)C)=C1O` [humulone], in data set [1], the “potentiation of GABA-induced peak current amplitude, normalized to 1 μM GABA alone” value is 158 ± 41%. For the same compound, the “[3H]EBOB displacement normalized to the maximum radioligand binding in the presence of 3 μM GABA alone” value in data set [2] worked out at 13.5 ± 1.5%. Besides, the “extent of humulone non-competitive synergy with ethanol, cerebellum compared to forebrain” value in data set [3] is reported as 11.2%. For the same compound, the “concentration at which potentiation of GABA-induced [3H]EBOB displacement was observed” value in data set [4] and in data set [5] was not below 10 µM throughout. The “effect on [3H]EBOB displacement induced by GABA” value in data set [4] (humulone 1 μM) and in data set [5] (humulone 1 μM) was “absent” in each case. Further, the solubility in beer in data set [6] is 14 µg/mL (≈ 38.6 µM). Also, the “duration of sleep induced by ethanol” value in the data set on BALB/cAnNRj mice (humulone 10 mg/kg i.p., p < 0.05) is “significantly increased”; with BALB/cAnNRj mice (humulone 20 mg/kg i.p., p < 0.001), “significantly increased”. In addition, the “onset of sleep induced by ethanol” value with BALB/cAnNRj mice (humulone 10 or 20 mg/kg i.p.) is listed as “no effect”.
